How the values were obtained:
[1] = cited from earlier work
[2] = EP 0,139,595 Example 1: 250 g mycelium (10% monensin), 1250 cc propylene glycol, room temperature, 2 hours ultrasound; cited from earlier work
[3] = Solubility of monensin in propylene glycol; assay type: physicochemical
Text: There is an indication that 50% of the monensin was found in solution in the propylene glycol.
We have found monopropylene glycol to be a poor solvent of monensin. While we have in NZ 272574/272940 referred to monopropylene glycol as being an antifreeze agent in which the ionophore antibiotic is sparingly soluble, we do appreciate that solubility to the extent referred to in Example 1 of EP 0,139,595 may be achieved when induced with ultrasound or heating.

## monensin
[1]
  solubility in water: only slightly soluble in water
[2]
  monensin found in solution in the propylene glycol: 50%
[3]
  solubility in monopropylene glycol: poor solvent

From patent US20090238881A1, “IONOPHORE ANTIBIOTIC FORMULATIONS” (priority 2000, published 2009)
